Results published in the supplement of paper PMC10307832.

Legend:
Assay in all cases: relative viability (nuclei count vs DMSO), 5 days (fraction); higher = more cells survive
Dabrafenib + OSI-027 = compound: CC(C)(C)c1nc(-c2cccc(NS(=O)(=O)c3c(F)cccc3F)c2F)c(-c2ccnc(N)n2)s1 [Dabrafenib] + COc1cccc2cc(-c3nc([C@H]4CC[C@H](C(=O)O)CC4)n4ncnc(N)c34)[nH]c12 [OSI-027] (partner 0.5 µM)
Method in brief: (§1)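 Lung cancer cell lines in 1536-well plates got either a single drug or a fixed anchor-drug dose together with five library-drug doses (not always all listed) in √10 steps, by pin tool, on the day after seeding. Nuclei were counted after 5 days, and relative viability is the treated-to-vehicle ratio of nuclei counts. Values are medians of duplicate plates.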

Dabrafenib + Phenformin = compound: CC(C)(C)c1nc(-c2cccc(NS(=O)(=O)c3c(F)cccc3F)c2F)c(-c2ccnc(N)n2)s1 [Dabrafenib] + N=C(N)NC(=N)NCCc1ccccc1 [Phenformin] (partner 250 µM)
Method in brief: as §1

VX-702 + Luminespib = compound: NC(=O)c1ccc(N(C(N)=O)c2c(F)cccc2F)nc1-c1ccc(F)cc1F [VX-702] + CCNC(=O)c1noc(-c2cc(C(C)C)c(O)cc2O)c1-c1ccc(CN2CCOCC2)cc1 [Luminespib] (partner 0.01 µM)
Method in brief: as §1

Dabrafenib + Linsitinib = compound: CC(C)(C)c1nc(-c2cccc(NS(=O)(=O)c3c(F)cccc3F)c2F)c(-c2ccnc(N)n2)s1 [Dabrafenib] + C[C@]1(O)C[C@@H](c2nc(-c3ccc4ccc(-c5ccccc5)nc4c3)c3c(N)nccn32)C1 [Linsitinib] (partner 1 µM)
Method in brief: as §1

Cell Line	relative viability (Dabrafenib + OSI-027; first compound 0.009487 µM)	relative viability (Dabrafenib + OSI-027; first compound 0.03 µM)	relative viability (Dabrafenib + OSI-027; first compound 0.09487 µM)	relative viability (Dabrafenib + OSI-027; first compound 0.3 µM)	relative viability (Dabrafenib + Phenformin; first compound 0.009487 µM)	relative viability (Dabrafenib + Phenformin; first compound 0.03 µM)	relative viability (Dabrafenib + Phenformin; first compound 0.09487 µM)	relative viability (Dabrafenib + Phenformin; first compound 0.3 µM)	relative viability (VX-702 + Luminespib; first compound 0.02 µM)	relative viability (VX-702 + Luminespib; first compound 0.2 µM)	relative viability (VX-702 + Luminespib; first compound 0.6325 µM)	relative viability (VX-702 + Luminespib; first compound 2 µM)	relative viability (Dabrafenib + Linsitinib; first compound 0.003 µM)	relative viability (Dabrafenib + Linsitinib; first compound 0.009487 µM)	relative viability (Dabrafenib + Linsitinib; first compound 0.03 µM)	relative viability (Dabrafenib + Linsitinib; first compound 0.09487 µM)	relative viability (Dabrafenib + Linsitinib; first compound 0.3 µM)	relative viability (Dabrafenib + OSI-027; first compound 0.003 µM)	relative viability (Dabrafenib + Phenformin; first compound 0.003 µM)
NCI-H522	0.761	0.642	0.714	0.757	0.654	0.616	0.628	0.634	0.868	1.11	1.26	1.2							
NCI-H1299													0.941	0.959	0.798	0.743	0.625		
NCI-H1623	0.46	0.441	0.425	0.489	0.611	0.572	0.602	0.682	0.469	0.496	0.477	0.465							
NCI-H1648	0.249	0.298	0.244	0.209														0.225	
NCI-H1650	0.899	0.374	0.803	0.948	0.424	0.457	0.495	0.631	0.19	0.193	0.216	0.226						0.318	0.347
NCI-H1703													0.335	1.12	0.75	0.834	1.18		
NCI-H2170	0.698	0.589	0.745	0.684	0.367	0.385	0.384	0.421	0.413	0.638	0.52	0.804						0.749	0.4
NCI-H2342	0.548	0.504	0.715	0.737	0.599	0.546	0.653	0.612	0.66	0.848	0.72	0.821						0.532	0.444
